Consider six molecules from patent publication US9682959B2, “Ethynyl derivatives” (Hoffmann-La Roche Inc., priority 2013, dated 2017).

For the experiment, the target named is rat mGlu 5a receptor (Rattus norvegicus (Rat), UniProt P31424). The experiment can be described thus: MPEP binding / [Ca2+]i FLIPR measurement on mGlu 5a transfected EBNA cells, antagonists tested against 10 μM glutamate. The note with it: rat mGlu 5a receptor transiently transfected into EBNA cells; Ki calculated from IC50. As for the experimental part:
The pharmacological activity of the compounds was tested using the following method: cDNA encoding rat mGlu 5a receptor was transiently transfected into EBNA cells using a procedure described by E.-J. Schlaeger and K. Christensen (Cytotechnology 1998, 15, 1-13). [Ca^2+]i measurements were performed on mGlu 5a transfected EBNA cells after incubation of the cells with Fluo 3-AM (obtainable by FLUKA, 0.5 μM final concentration) for 1 hour at 37° C. followed by 4 washes with assay buffer (DMEM supplemented with Hank's salt and 20 mM HEPES. [Ca^2+]i measurements were done using a fluorometric imaging plate reader (FLIPR, Molecular Devices Corporation, La Jolla, Calif., USA). When compounds were evaluated as antagonists they were tested against 10 μM glutamate as agonist.
The inhibition (antagonists) curves were fitted with a four parameter logistic equation giving IC50, and Hill coefficient using the iterative non linear curve fitting software Origin (Microcal Software Inc., Northampton, Mass., USA).
The Ki values of the compounds tested are given. The Ki value is defined by the following formula:
[formula] in which the IC50 values are those concentrations of the compounds tested in μM by which 50% of the effect of compounds are antagonized. [L] is the concentration and the EC50 value is the concentration of the compounds in μM which brings about 50% stimulation.
The compounds of the present invention are mGluR5 receptor antagonists.

Structures are written as SMILES.

Sequence of rat mGlu 5a receptor (P31424 other isoform, or with tags, fused parts or gaps): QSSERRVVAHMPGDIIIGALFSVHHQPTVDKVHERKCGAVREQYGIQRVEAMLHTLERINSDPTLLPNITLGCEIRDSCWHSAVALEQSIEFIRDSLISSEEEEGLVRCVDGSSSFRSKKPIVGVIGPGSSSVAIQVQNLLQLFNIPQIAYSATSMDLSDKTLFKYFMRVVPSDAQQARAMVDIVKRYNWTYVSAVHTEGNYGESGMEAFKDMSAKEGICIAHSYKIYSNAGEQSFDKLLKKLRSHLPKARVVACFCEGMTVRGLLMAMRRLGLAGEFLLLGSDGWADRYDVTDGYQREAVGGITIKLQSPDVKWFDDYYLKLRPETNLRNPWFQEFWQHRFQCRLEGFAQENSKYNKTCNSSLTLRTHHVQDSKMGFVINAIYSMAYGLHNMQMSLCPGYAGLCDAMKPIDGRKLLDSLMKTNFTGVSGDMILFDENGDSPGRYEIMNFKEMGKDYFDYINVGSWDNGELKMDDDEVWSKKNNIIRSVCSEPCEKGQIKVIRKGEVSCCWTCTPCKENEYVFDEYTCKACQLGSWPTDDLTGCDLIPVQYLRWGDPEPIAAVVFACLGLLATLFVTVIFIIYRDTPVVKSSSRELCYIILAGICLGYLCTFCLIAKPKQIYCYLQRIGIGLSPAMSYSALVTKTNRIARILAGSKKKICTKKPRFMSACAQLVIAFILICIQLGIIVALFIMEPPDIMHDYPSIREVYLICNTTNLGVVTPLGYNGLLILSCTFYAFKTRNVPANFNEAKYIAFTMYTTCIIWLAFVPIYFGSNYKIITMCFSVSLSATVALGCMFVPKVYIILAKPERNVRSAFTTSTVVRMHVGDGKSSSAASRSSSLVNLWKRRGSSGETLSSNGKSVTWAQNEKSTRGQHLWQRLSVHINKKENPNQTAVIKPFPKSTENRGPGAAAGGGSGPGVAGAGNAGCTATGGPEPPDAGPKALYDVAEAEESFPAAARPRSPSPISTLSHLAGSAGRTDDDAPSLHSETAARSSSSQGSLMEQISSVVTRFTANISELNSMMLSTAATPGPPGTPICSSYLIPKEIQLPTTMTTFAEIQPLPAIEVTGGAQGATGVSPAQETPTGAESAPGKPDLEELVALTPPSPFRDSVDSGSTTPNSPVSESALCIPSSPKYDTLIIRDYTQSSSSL

By Ki is commonly meant a measure of affinity in units of concentration, obtained from inhibition or displacement. In the case of `CN1C(=O)C(C)(C)N=C1c1ccc(C#Cc2cccc(F)c2)cn1` [Example 1, 2-[5-[2-(3-Fluorophenyl)ethynyl]-2-pyridyl]-3,5,5-trimethyl-imidazol-4-one], the inhibitory constant (Ki) was 18 nM. As for `CN1C(=O)C(C)(C)N=C1c1ccc(C#Cc2ccccc2)cn1` [Example 2, 3,5,5-Trimethyl-2-[5-(2-phenylethynyl)-2-pyridyl]imidazol-4-one], the figure is 38 nM. As for `CN1C(=O)C(C)(C)N=C1c1ccc(C#Cc2cccc(Cl)c2)cn1` [Example 3, 2-[5-[2-(3-Chlorophenyl)ethynyl]-2-pyridyl]-3,5,5-trimethyl-imidazol-4-one], the figure is 16 nM; as for `CN1C(=O)C(C)(C)N=C1c1ncc(C#Cc2cccc(Cl)c2)cn1` [Example 4, 2-[5-[2-(3-Chlorophenyl)ethynyl]-2-pyrimidyl]-3,5,5-trimethyl-imidazol-4-one], 80 nM; as for `CN1C(=O)C(C)(C)N=C1c1ncc(C#Cc2ccccc2)cn1` [Example 5, 3,5,5-Trimethyl-2-[5-(2-phenylethynyl)-2-pyrimidyl]imidazol-4-one], 281 nM. Consider `CN1C(=O)C(C)(C)N=C1c1ncc(C#Cc2cccc(F)c2)cn1` [Example 6, 2-[5-[2-(3-Fluorophenyl)ethynyl]-2-pyrimidyl]-3,5,5-trimethyl-imidazol-4-one], for which the inhibition constant Ki was 280 nM.
